{
  "source": "patent US20250034586A1",
  "about": "“METHOD FOR EDITING BANANA GENES” (Tropic Biosciences UK Limited, priority 2021, published 2025)",
  "key": {"Rice protoplasts": {"system": "Rice protoplasts", "conditions": "for 10dd; cited from earlier work"}, "Potato somatic cells": {"system": "Potato somatic cells", "conditions": "cited from earlier work"}, "banana rooting plantlets": {"system": "banana rooting plantlets", "test": "CSF kill curves in banana rooting plantlets (in medium, spraying, both)", "type": "in vivo", "method": "The effect of CSF was also evaluated in rooting plantlets. Three methods were tested, (i) incorporation of CSF in the rooting medium (RM), (ii) spraying the plantlets with CSF solution and (iii) incorporation in the media of a lower concentration of CSF (0.5 mg/L) and spraying the plantlets (concurrently).\nSix CSF concentrations, 0, 0.05, 0.5, 5, 50 and 100 mg/L, were tested in rooting plantlets.\nRooting banana plantlets were cleared of roots and split from the corm to have single shoots for testing with RM medium with or without CSF. Five to six shoots with similar morphology were inoculated into each phytotray.\nFor spraying tests, CSF solutions (concentrations above) were prepared in sterile deionised water or in 0.015% Silwett L-77. One mL of solution was sprayed onto each phytotray (five shoots per phytotray, so 1 mL between five shoots). For control conditions (Omg/L CSF), 1 mL of deionised water was used.\nA range of CSF concentrations (0, 0.05, 0.5, 5, 50, 100 mg/L) were tested in banana rooting shoots. Banana shoots were separated from roots and split to give single shoots that were inoculated into new media to determine the effect of CSF over a month of exposure. To assess the effectiveness of CSF in banana three approaches were tested: (i) incorporation of the toxin in RM medium, (ii) spraying the shoots, and (iii) spraying the shoots plus incorporation of a small amount of CSF […] in RM."}, "Sugar cane callus": {"system": "Sugar cane callus", "conditions": "after 5 weeks; 3.6, 20, 50, 200, 500 μg/L tested; cited from earlier work"}, "[1]": {"system": "banana WT and ALS edited embryos", "test": "CSF in ECS regeneration, optimisation for edited embryos", "type": "cell-based", "conditions": "3 months treatment", "method": "Data were obtained for using CSF in ECS regeneration (3 months treatment) for concentrations 0, 25, 50 and 100 μg/L."}, "ALS1 or ALS2": {"system": "ALS1 or ALS2", "test": "Genotyping of CSF-selected samples (PBE experiments)", "type": "cell-based, banana", "conditions": "across all experiments, embryos and shoots", "excerpt": "gDNA from embryos and plantlets was extracted and qPCR was used to test for the presence of integrated tDNA in the plant genome. Three independent qPCRs were run on each sample with different sets of primers (listed below) spanning the tDNA, ranging from the left to right border. An additional qPCR was run on an endogenous banana gene (actin) for normalisation of Ct values. All qPCRs were run on the LightCycler® 96 System (Roche) using PowerUp™ SYBR® Green Master Mix (Thermo Fisher Scientific™).\nFor edit validation, amplicons for each target gene (als1, als2, ppo2, aco1) were made using Q5® High-Fidelity 2× Master Mix (New England Biolabs, NEB) using reaction settings listed below. PCR products were purified using Monarch® PCR & DNA Cleanup Kit (NEB) according to manufacturer's specifications. The amplicons were after validated by Sanger sequencing."}},
  "data": [
    {"smiles": "COc1nc(C)nc(NC(=O)NS(=O)(=O)c2ccccc2Cl)n1", "note": "[CSF, chlorsulfuron]", "values": [
      {"measurement": "CSF concentration reported to be effective", "setting": "Rice protoplasts", "result": 3.6, "unit": "µg/L"},
      {"measurement": "CSF concentration reported to be effective", "setting": "Potato somatic cells", "result": 20, "unit": "µg/L"},
      {"measurement": "Severity of symptoms", "setting": "banana rooting plantlets; 0.05 mg/L CSF in the medium plus spraying with CSF", "result": "an increase in the severity of symptoms"},
      {"measurement": "Root development", "setting": "banana rooting plantlets; CSF in medium, even at 0.05 mg/L", "result": "root development was not observed"},
      {"measurement": "Effective CSF concentration added to the medium (plantlets did not develop, chlorotic phenotype)", "setting": "banana rooting plantlets; CSF incorporated in RM medium, repeated 3 times", "result": 0.5, "unit": "mg/L"},
      {"measurement": "Lowest concentration that delayed shoot development", "setting": "banana rooting plantlets; spraying banana shoots", "result": 5, "unit": "mg/L"},
      {"measurement": "Shoot development", "setting": "banana rooting plantlets; weekly spraying with 0.5 mg/L CSF", "result": "quite effective at delaying banana shoot development"},
      {"measurement": "Best concentration for selection", "setting": "Sugar cane callus", "result": 3.6, "unit": "µg/L"},
      {"measurement": "Frequency of ALS edited embryos recovered after selection", "setting": "[1]; CSF 25 μg/L", "result": "1500 ± 500"},
      {"measurement": "Frequency of WT embryos recovered after selection", "setting": "[1]; CSF 25 μg/L", "result": 0},
      {"measurement": "Frequency of ALS edited embryos recovered after selection", "setting": "[1]; CSF 50 μg/L", "result": "750 ± 250"},
      {"measurement": "Frequency of WT embryos recovered after selection", "setting": "[1]; CSF 50 μg/L", "result": 0},
      {"measurement": "Frequency of ALS edited embryos recovered after selection", "setting": "[1]; CSF 100 μg/L", "result": 0},
      {"measurement": "Frequency of WT embryos recovered after selection", "setting": "[1]; CSF 100 μg/L", "result": 0},
      {"measurement": "Non-transgenic rate in CSF selected samples", "setting": "ALS1 or ALS2", "result": "> 10", "unit": "%"}
    ]}
  ]
}
